In patent publication US6410597B1, “Hydroxyalkyl amide analogs of ceramide” (Virginia Commonwealth University, priority 2000, dated 2002):
Entries after “also recorded” stand apart in the source; their conditions may differ.

Key:
T98 cells = experiment: MTS proliferation assay of malignant glioma cells; format: cell-based, human; conditions: T98, 5 days; S16 100 μM, S18 100 or 200 μM
Method: (§1) FIGS. 5A, 5B and 5C. MTS proliferation assay of in vitro brain tumor cells (malignant glioma) treated with structural analogues of ceramic. (•) control; (∘) S16, 100 μM; (▾) S18, 200 μM; (∇) S18, 100 μM. 5A: U87 cells (6 days); 5B: RT2 cells (6 days); 5C: T98 cells (5 days).
(§2) Murine neuroblastoma x rat glioma NG108-15 and murine neuroblastoma x rat dorsal root ganglion F-11 cells were kindly provided by Drs. Robert Ledeen (New Jersey School of Medicine, Newark, N.J.) and Glyn Dawson (University of Chicago, Chicago, Ill.), respectively. PC12 (rat adrenal pheochromocytoma, ATCC CRL 1721) cells were purchased from the American Type Culture Collection (Manassas, Va.). U87 and T98 human glioma cells were purchased from the American Type Culture Collection (Manassas, Va.). RT2 rat glioma cells were a gift.
(§3) CU87, T98 or RT2 malignant glioma cells (750/well) were plated onto 96-well plates and allowed to grow for 5-6 days in the presence of the ceramic analogues S16, S18 or B16, or control media. The CellTiter96® Aqueous One cell proliferation assay (Promega, Inc.) was used to quantify glioma cell proliferation. In this assay, the amount of formazan product (490 nm absorbance) made from the conversion of [3-(,5-dimethyl-2-yl)-5-(3-carboxymethoxyphenyl)-2-(4-sulfophenyl)-2H-tetrazolium, inner salt (MTS) by dehydrogenase enzymes of metabolically active cells is directly proportional to the number of living cells in culture.
(§4) The effect of the compounds S16, S18, and B16 on the ability of U87, RT2 and T98 glioma cells to proliferate in vitro was investigated as described in Methods and the results are presented in FIGS. 5A, 5B and 5C, respectively.

U87 cells = experiment: MTS proliferation assay of malignant glioma cells; format: cell-based, human; conditions: U87, 6 days; S16 100 μM, S18 100 or 200 μM
Method: as §1, §2, §3, §4

RT2 cells = experiment: MTS proliferation assay of malignant glioma cells; format: cell-based, rat; conditions: RT2, 6 days; S16 100 μM, S18 100 or 200 μM
Method: as §1, §2, §3, §4

[1] = system: Neuroblastoma cells (NG108-15 or F-11); experiment: Effect of alkyl chain length on apoptotic potential of N-acylated compounds; format: cell-based; conditions: 30% confluence, overnight, various concentrations
Method: (§5) Apoptosis was analyzed by DNA fragmentation, in situ terminal nucleotidyl transferase assay, and staining of condensed chromatin with Hoechst dye 33258 as described elsewhere (Ji et al., 1995; Bieberich et al., 1999) and as further outlined below. The degree of cell death was monitored by determination of the number of floating cells and cells stained with 0.4% trypan blue (Wang et al., 1999).
Neuroblastoma cells (NG108-15 or F-11) were grown to 30% confluence and incubated overnight with various concentrations of N-acyl compounds containing carbon chains with 8, 16 and 18 carbons, as well as C16 ethanolamine. The floating cells were harvested from the medium and the amount of cellular protein determined for calculation of dead cells. In addition, cell death was quantified by staining with trypan blue. The attached cells were stained with Hoechst dye 33258 for calculation of apoptotic cells with condensed chromatin. The number of apoptotic cells was determined by counting 100 stained cells in 20 different areas on tissue culture dishes from three independent experiments.
The effect of alkyl chain length on the apoptotic potential of S16 and two compounds differing only in the length of the alkyl chains, S8 (8 carbons)and S18 (18 carbons) was investigated as described in Methods. Also, the contribution of the second β-hydroxymethyl group of S16 was analyzed by comparison with the effect of C16 EA (C16 ethanolamine) on apoptosis. […] As such, the preferred length is 12-20 carbons.

NG108-15 cells [2] = experiment: Alteration of ceramic and sphingolipid levels (HPTLC) upon incubation with S16; format: cell-based, murine neuroblastoma x rat glioma
Text: as §2
(§6) Lipids were prepared and analyzed by HPTLC as described previously (Freischutz et al., 1997).
(§7) NG108-15 or F-11 cells were incubated with 100 μM S16 overnight and endogenous ceramic analyzed by HPTLC of neutral lipids corresponding to 200 μg of cellular protein applied per lane. The HPTLC plate was developed in CHCl3/HOAc (9:1), v/v) and sphingolipids stained with cupric acetate/phosphoric acid reagent. Levels of ceramic, sphingomyelin, and neutral lipids were determined by densitometric analysis and comparison with various amounts of standard lipids. […] However, the concentration of ceramic in F-11 and NG108-15 cells at 20% confluence was elevated by about 50-80%.

F-11 cells [3] = experiment: as above; format: cell-based, murine neuroblastoma x rat dorsal root ganglion
Text: as §2, §6, §7

NG108-15 cells [4] = experiment: Dependence of S16 induced apoptosis on cell density; format: cell-based, murine neuroblastoma x rat glioma; conditions: 100 μM S16 overnight; cell density below 20% or above 50%
Method: as §5
Cells were grown to varying degrees of confluence (100%=1.0×10^5 cells/cm^2) and then incubated overnight with 100 μM S16. The floating cells were harvested from the medium and the amount of cellular protein determined for calculation of dead cells. In addition, cell death was quantified by staining with trypan blue. The attached cells were stained with Hoechst dye 33258 for calculation of apoptotic cells with condensed chromatin. The number of apoptotic cells was determined by counting 100 stained cells in 20 different areas on tissue culture dishes from three independent experiments.
(§8) The dependence of the rate of S16 induced apoptosis of NG108-15 cells on cell density was investigated as described in methods and the results are given in FIG. 3. […] This observation was confirmed by determination of cell density-dependent DNA fragmentation (laddering) upon incubation with S16. Cells were incubated with 100 μM S16 for 15 hours.

NG108-15 cells [5] = experiment: Cell density-dependent DNA fragmentation (laddering); format: cell-based, murine neuroblastoma x rat glioma; conditions: 100 μM S16, 15 hours; 30% confluent compared with 100% confluent cells
Method: as §5, §8

F-11 cells [6] = experiment: as above; format: cell-based, murine neuroblastoma x rat dorsal root ganglion; conditions: 100 μM S16, 15 hours; 30% confluent compared with 100% confluent cells
PC12 cells = experiment: Dependence of apoptosis on cell differentiation (Hoechst dye 33258 staining); format: cell-based, rat; conditions: 24 hours; undifferentiated vs forskolin-differentiated PC12 cells
Text: as §2, §5
The dependence of apoptosis upon differentiation of cells was analyzed by incubating undifferentiated PC12 cells and PC12 cells which had been induced to differentiate with S16 for 24 hours. Differentiation was induced by preincubation with 10 μM forskolin for 48 hrs. The extent of apoptosis was determined by staining with Hoechst dye 33258.
The apoptotic potential of S16 with respect to cell differentiation was investigated as described in Methods.

[7] = system: NG108-15 or F-11 neuroblastoma tumors; experiment: In vivo tumor model in athymic mice; design: species or system athymic NU/NU mice
Method: A total of 1×10^6 NG108-15 or F-11 cells in 200 μl of phosphate buffered saline (PBS) was subcutaneously injected into each side of athymic NU/NU mice (Harlan) for generation of an in vivo brain tumor model in mouse skin. The resulting tumors were treated either intraperitoneally or by direct intratumor injection of ceramic analogs. Tumor growth rates and treatment results were the same within experimental error regardless of whether NG108-15 or F-11 cells were used.
Tumor growth was monitored by caliper measurement. The tumor volume was calculated by the formula: tumor size [mm^3]=(tumor width [mm])^2×tumor length [mm].
(§9) The intraperitoneal administration of ceramic analogs started one day after grafting and was performed twice per day with 0.7 ml of 2 mM S16 or 4 mM S18 corresponding to 50-100 mg/kg per mouse. The compounds were predissolved in dimethylsulfoxide (DMSO) at a maximum concentration of 250 mM and then serially diluted to 2 mM S16 or 4 mM S18 in 20% bovine serum albumin (BSA), 500 μM sodium stearate, 0.9% sodium chloride.
The intratumoral administration of ceramic analogs was initiated when tumor size was 30-50 mm^3 and consisted of daily injections of a 10-fold concentrated analog solution prepared as described above for S16 or of 2 mM B16 in 0.9% sodium chloride. The final concentration was calculated to be 200 μM when applied in a volume of 10% of the tumor size. Tumor volume was measured and calculated as described above.
Athymic mice were grafted with neuroblastoma tumors by subcutaneous injection and treated by intraperitoneal or intratumoral injection of S16 as described in Methods. Control mice received no treatment, or treatment with C-16 EA. […] Furthermore, the first measurable tumors appeared 2 days later in mice treated with S16 than in control mice. […]
FIG. 9. […] The tumor volume was determined by caliper measurement and was about 4 ml for the mouse on the left side (untreated for 10 days) and 2 ml for the mouse on the right side (treated for 14 days).

[8] = General toxicity during in vivo treatment; conditions: up to a total of 200 mg/kg/day, treatment for 14 days
Method: as §9
Athymic mice were grafted with neuroblastoma tumors by subcutaneous injection and treated by intraperitoneal or intratumoral injection of S16 as described in Methods. Control mice received no treatment, or treatment with C-16 EA. […] Furthermore, the first measurable tumors appeared 2 days later in mice treated with S16 than in control mice.

[9] = 100 μM S16, 100% confluent cells
[10] = 100 μM S16 overnight, cells at 20% confluence

Row | SMILES | cellular proliferation (T98 cells) | cellular proliferation (U87 cells) | cellular proliferation (RT2 cells) | apoptotic potential [1] | alteration of endogenous ceramic (NG108-15 cells [2]; [9]) | alteration of the glycosphingolipid composition (NG108-15 cells [2]; 100 μM S16 overnight) | alteration of the level of sphingomyelin (NG108-15 cells [2]; 100 μM S16 overnight) | concentration of ceramic elevated (NG108-15 cells [2]; [10]) | alteration of endogenous ceramic (F-11 cells [3]; [9]) | alteration of the glycosphingolipid composition (F-11 cells [3]; 100 μM S16 overnight) | alteration of the level of sphingomyelin (F-11 cells [3]; 100 μM S16 overnight) | concentration of ceramic elevated (F-11 cells [3]; [10]) | degree of apoptosis (NG108-15 cells [4]) | laddering of 200-base pair fragments (NG108-15 cells [5]) | laddering of 200-base pair fragments (F-11 cells [6]) | apoptosis (staining with Hoechst dye) (PC12 cells) | final size of the tumors relative to untreated or C16-EA treated mice ([7]; intraperitoneal or intratumoral injection) | delay of appearance of first measurable tumors versus control mice ([7]; mice treated with S16) [days] | effects of general toxicity [8] | tumor volume (caliper measurement) ([7]; F-11 grafts, intra-peritoneal 0.7 ml of 4 mM twice a day for 14 days, untreated mouse about 4 ml at 10 days) [mL]
1 | CCCCCCCCCCCCCCCC(=O)N(CCO)CCO [B16, N,N-bis(2-hydroxyethyl) palmitamide] | marked decrease in cellular proliferation; also recorded: virtually eliminating the proliferation | marked decrease in cellular proliferation; also recorded: virtually eliminating the proliferation | marked decrease in cellular proliferation; also recorded: virtually eliminating the proliferation |  |  |  |  |  |  |  |  |  |  |  |  |  |  |  |  | 
2 | CCCCCCCCCCCCCCCC(=O)NCCO [C16 EA, N-palmitoyl ethanolamine, reference compound] |  |  |  | almost no apoptosis |  |  |  |  |  |  |  |  |  |  |  |  |  |  |  | 
3 | CCCCCCCCCCCCCCCC(=O)NC(CO)CO [S16, N-palmitoyl serinol] | marked decrease in cellular proliferation | marked decrease in cellular proliferation | marked decrease in cellular proliferation | optimal | no significant alteration | no detectable alteration | no detectable alteration | 50-80% | no significant alteration | no detectable alteration | no detectable alteration | 50-80% | markedly decreased | increased markedly | increased markedly | only undifferentiated cells showed the typical staining | 30-35% | 2 | No effects of general toxicity were observable | 
4 | CCCCCCCC/C=C\CCCCCCCC(=O)NC(CO)CO [S18, N-oleoyl serinol] | marked decrease in cellular proliferation; also recorded: virtually eliminating the proliferation | marked decrease in cellular proliferation; also recorded: virtually eliminating the proliferation | marked decrease in cellular proliferation; also recorded: virtually eliminating the proliferation | optimal |  |  |  |  |  |  |  |  |  |  |  |  |  |  |  | ~2
